# Results taken from patent publication US10428030B2, “Heterocycle derivatives and their use for the treatment of CNS disorders” (Trillium Therapeutics Inc., priority 2015, dated 2019).
# What was measured:
# [1] = system: Frings audiogenic seizure-susceptible mice; assay: Frings audiogenic seizure (AGS)-susceptible mouse model; type: in vivo
# Excerpt: Frings audiogenic seizure (AGS)-susceptible mice model examines the ability of an investigational drug to alter the onset and/or severity of seizures in a genetic mouse model of seizure susceptibility. Mice are genetically susceptible to sound-induced reflex seizures. Their seizure phenotype is characterized by wild running, loss of righting reflex, tonic flexion, and tonic extension in response to high-intensity sound stimulation. […] For example, the prototypical anticonvulsants phenytoin and ethosuximide display widely divergent clinical spectrums in humans, but are both active against sound-induced seizures in mice. Yet, the preclinical utility of this animal model rests in the useful information that can be obtained within a genetically susceptible model of seizures. Further, efficacy in this model provides proof of concept of brain bioavailability following systemic administration. The Frings AGS-susceptible mouse has a well-validated epilepsy phenotype that makes it particularly useful as a screening model. Beginning at about 21 days of age, Frings AGS-susceptible mice display prominent seizure activity in response to a high-intensity sound stimulus. They then remain susceptible to sound throughout their life. This is in stark contrast to the DBA2J AGS-susceptible mouse, which is the other common model of sound-induced seizures, as DBA2J mice are only susceptible to sound-induced seizures during a narrow developmental window (post-natal days 18-30). Thus, the Frings AGS-susceptible mouse seizures respond to a wide range of CNS-active drugs and display sound-induced seizures throughout their lifetime. In this regard, Frings AGS-susceptible mice are a highly useful screening model for the identification and characterization of compounds potentially effective against inherited epilepsy.
# Male and female Frings audiogenic seizure-susceptible mice (18-25 g) are maintained in an in-house colony at the University of Utah. For each screening test, groups of 8 mice each are treated i.p. with varying doses of the investigational compound. At the time of peak effect as determined in the MES test (Test 4 in CF1 mice), individual mice are placed in a round plexiglass jar (diameter, 15 cm, height, 18 cm) and exposed to a sound stimulus of 110 decibels (11 KHz) delivered for 20 sec. Mice are observed for 25 sec for the presence or absence of hind limb tonic extension. Mice not displaying hind limb tonic extension are considered protected. The severity of a seizure may also be quantitated by assigning a numerical score to the observed response, e.g. no response—0; wild running for <10 sec—1; wild running for >10 sec—2; clonic seizure—3; forelimb extension/hind limb flexion—4; tonic seizure—5.
# [2] = system: mice; assay: Intravenous Metrazol Seizure Threshold Test (i.v. MET); type: in vivo; conditions: mouse, ip, i.v. Metrazol infusion (FIG. 1)
# Protocol: The iv-Met test provides a measure of a test substance's ability to raise or lower seizure threshold. Two doses of the test compound are usually employed in this test, the MES ED50 and the TD50 determined following ip quantification testing in mice. Randomly selected mice are injected intraperitoneally 2 minutes apart with either the vehicle or the two test drug doses, maintaining the same order of dosing until 30 mice have been injected. At the previously determined TPE, 0.5% heparinized Metrazol solution is infused at a constant rate of 0.34 ml/min into a lateral tail vein of an unrestrained mouse. Infusion is by means of a Sage syringe pump (model 341 A) and a 10 ml B-D plastic syringe connected to a length of No 20 P.E. tubing. A 27 gauge stainless steel needle with the hub removed is connected to the tubing and inserted into a vein, bevel side up and secured to the tail by a narrow piece of adhesive tape. For the placement of the needle, the mouse is restrained in a cone shaped device with only the tail exposed. The rate selector is set on 4, and the switch is set at ml/min. […] The time in seconds from the start of the infusion to the appearance of the “first twitch” and the onset of sustained clonus is recorded. […]
# The mean and standard error for each of the 3 groups and the significance of the difference between the test groups and the control are calculated.
# [3] = Fixed speed rotorod, gross motor function (rat); conditions: male, Sprague-Dawley, in vivo, po
# Protocol: On the test day following a defined drug pretreatment period, rats received a maximal electroshock (150 mA, 0.2 s duration, 60 Hz) via corneal electrodes. Protection was defined as absence of a full tonic seizure within 10 s of stimulus delivery. Twenty minutes before the MES procedure, the animals were tested on a fixed speed rotorod (best score from 3 trials at 8 r.p.m, trial duration=60 s) to give an early assessment of drug effect on gross motor function.
# [4] = system: amygdala kindled rat; assay: Amygdala kindled rat model (focal seizures); type: in vivo; conditions: <100 mg/kg i.p., vs vehicle controls
# Excerpt: Amygdala kindling model is an animal model for complex partial seizures, which is the most common type of epilepsy in adults and is often drug resistant. Exemplary compounds of the application were effective in this model.
# [5] = system: corneal kindled mice; assay: Corneal kindling mouse model (focal seizures); type: in vivo
# Excerpt: Mice are kindled electrically with 3 sec stimulation, 8 mA, 60 Hz, and coneal electrodes to a criterion of 10 consecutive Stage 5 seizures (facial clonus and head nodding progressing to forelimb clonus, and finally rearing and falling accompanied by a generalized clonic seizure as described by Racine (Racine R J. Neurophysiol., 1972. 32: p. 281-294) Stage 5 is generally reached after twice daily stimulation for 8 days. With continued stimulation once a day, animals usually progress to a reproducible Stage 5 after 10-14 additional days. At least 72 hours after the mice have been kindled, the test substance is administered either i.p. or p.o. and, at the previously determined TPE, each animal is given the electrical stimulus indicated above. Following stimulation, the animals are observed for the presence or absence of the rearing and falling criteria of a Stage 5 seizure. Treated animals not displaying a Stage 3, 4, or 5 seizure are considered protected. The dose of the test substance is varied between the limits of 0 and 100% efficacy, and the ED50 and 95% confidence intervals calculated by probit analysis. Mean values and the S.E.M. are calculated for the length of clonus and seizure duration and p values are determined by the Student's t-test.
smiles,measurement,setting,value
O=C1COc2cc(OCc3ccc(OC(F)F)cc3)ccc2N1 [Compound I(B)],ED50,"[1]; Mus musculus, ip, sound-induced seizures",13 ± 2 mg/kg
same,effect on AGS,[1]; i.p.,dose-dependently blocks AGS
same,effect on seizure threshold,[2],dose-dependently increased the seizure threshold
same,ED50 at 4 hours,[3],> 500 mg/kg
same,suppression of fully kindled (stage 5) seizures,[4],dose related suppression of fully kindled (stage 5) seizures
same,ED50,"[5]; Mus musculus, corneal kindled mice, read-out: ED50, suppression of fully kindled (stage 5) seizures",119 ± 1.81 mg/kg
same,Average Seizure,[5]; dose 35 mg/kg,5
same,N/F (number of animals active over the number tested),[5]; dose 35 mg/kg,0/8
same,Average Seizure,[5]; dose 70 mg/kg,4.6
same,N/F (number of animals active over the number tested),[5]; dose 70 mg/kg,1/8
same,Average Seizure,[5]; dose 140 mg/kg,2.4
same,N/F (number of animals active over the number tested),[5]; dose 140 mg/kg,5/8
same,Average Seizure,[5]; dose 300 mg/kg,0.8
same,N/F (number of animals active over the number tested),[5]; dose 300 mg/kg,8/8
same,effect on fully kindled (stage 5) seizures,[5]; vs vehicle controls,dose related suppression of fully kindled (stage 5) seizures
